Test results: patent US10780092B2, “Fused pyrazine derivatives useful as soluble guanylate cyclase stimulators” (Merck Sharp & Dohme Corp., priority 2016, dated 2020)

Key:
[1] = target: human recombinant sGC enzyme (Homo sapiens (Human), UniProt Q02108+Q02153); experiment: SEC competition binding assay with [3H] Compound B radioligand; settings: displacement of 1.6 nM [3H] Compound B, 24 h at 37° C.
Method in brief: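 Recombinant human sGC incubated with 1.6 nM [3H] Compound B and test compounds for 24 h at 37° C. Buffer: 50 mM triethanolamine pH 7.4, 3 mM MgCl2, 0.025% BSA, 2 mM DTT, 300 μM DETA/NO, 400 μM GTP, 1% DMSO. Bound ligand separated by gel filtration and counted by scintillation; non-specific binding with 1 μM Compound B; Ki from one-site fit.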

sGC α1/β1 heterodimer = sGC α1/β1 heterodimer (Homo sapiens (Human), UniProt Q02108+Q02153); experiment: Cell-based sGC functional assay (CASA assay), cGMP by HTRF; settings: CHO-K1/sGC cells; for Emax: CHO-K1, cGMP production as percentage of maximum of compound A (set to 100%), read-out: % Activation; for EC50: inflection point of cGMP production, 4P fit, read-out: IP
Method in brief: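 CHO-K1 cells stably expressing human sGC α1/β1, with 0.5 mM IBMX, pre-incubated ±1 μM DETA-NO 30 min at 25° C, then compound 1 hr at 37° C (2.5% DMSO). cGMP by HTRF; activation as % of reference activator maximum, 4P fit giving inflection point and maximum […].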

Row | Compound | Ki [1] | Emax (sGC α1/β1 heterodimer) | EC50 (sGC α1/β1 heterodimer) | % Activation (sGC α1/β1 heterodimer; cGMP production as percentage of maximum of compound A (set to 100%))
1 | CC1CCC(Cc2nc(-c3nc(N)c4c(n3)NC(=O)C4(C)c3ccc(O)c(Cl)c3)cn3ccnc23)CC1 (single isomer, unassigned) [Example 120-BB, 4-Amino-5-(3-chloro-4-hydroxyphenyl)-5-methyl-2-{8-[(4-methylcyclo-hexyl)methyl]imidazo-[1,2-a]pyrazin-6-yl}-5,7-dihydro-6H-pyrrolo-[2,3-d]pyrimidin-6-one] | 3.79 nM |  | 39 nM | 121%
2 | CC(C)CCc1nc(-c2nc(N)c3c(n2)NC(=O)C3(C)c2cc(O)c(Cl)cn2)cn2ccnc12 (stereo not drawn) [Example 57-B, 4-Amino-5-(5-chloro-4-hydroxypyridin-2-yl)-2-(8-isopentylimidazo[1,2-a]pyrazin-6-yl)-5-methyl-5,7-dihydro-6H-pyrrolo[2,3-d]pyrimidin-6-one] | 1.24 nM | 67% | 798 nM | 
3 | CC(C)CCc1nc(-c2nc(N)c3c(n2)NC(=O)C3(C)c2ccc(O)c(F)c2)cn2ccnc12 (stereo not drawn) [Example 54-B, 4-Amino-5-(3-fluoro-4-hydroxyphenyl)-2-(8-isopentylimidazo[1,2-a]pyrazin-6-yl)-5-methyl-5,7-dihydro-6H-pyrrolo[2,3-d]pyrimidin-6-one] | 1.08 nM | 72% | 42 nM | 
4 | CC1(c2cc(O)c(C#N)c(Cl)c2)C(=O)Nc2nc(-c3cn4ncnc4c(Cc4ccccc4F)n3)nc(N)c21 (stereo not drawn) [Example 149-A, 4-(4-amino-2-{8-(2-fluorobenzyl)-[1,2,4]-triazolo[1,5-a]pyrazin-6-yl}-5-methyl-6-oxo-6,7-dihydro-5H-pyrrolo-[2,3-d]pyrimidin-5-yl)-2-chloro-6-hydroxy-benzonitrile] | 0.509 nM | 54% | 583 nM | 
5 | CC1(c2ccc(Cl)c(O)c2)C(=O)Nc2nc(-c3cn4ccnc4c(CC4CCC(F)(F)CC4)n3)nc(N)c21 (stereo not drawn) [Example 95-A, 4-Amino-5-(4-chloro-3-hydroxyphenyl)-2-(8-((4,4-difluorocyclohexyl)methyl)imidazo [1,2-a]pyrazin-6-yl)-5-methyl-5,7-dihydro-6H-pyrrolo[2,3-d]pyrimidin-6-one] | 14.4 nM | 96% | 1810 nM | 
6 | CC1(c2ccc(O)cc2)C(=O)Nc2nc(-c3cn4ccnc4c(CCC(F)(F)C(F)(F)F)n3)nc(N)c21 (stereo not drawn) [Example 81-B, 4-Amino-5-(4-hydroxyphenyl)-5-methyl-2-(8-(3,3,4,4,4-pentafluorobutyl)imidazo[1,2-a]pyrazin-6-yl)-5,7-dihydro-6H-pyrrolo[2,3-d]pyrimidin-6-one] | 14 nM | 131% | 352 nM | 
7 | Cc1cccc(Cc2nc(-c3nc(N)c4c(n3)NC(=O)C4(C)c3cccc(O)c3)cn3ccnc23)c1 (stereo not drawn) [Example 122-B, 4-Amino-5-(3-hydroxy-phenyl)-5-methyl-2-{8-[(3-methylphenyl)methyl]-imidazo[1,2-a]pyrazin-6-yl}-5,7-dihydro-6H-pyrrolo-[2,3-d]pyrimidin-6-one] | 15.6 nM | 106% | 1820 nM | 
8 | CC1(c2cccc(O)c2)C(=O)Nc2nc(-c3cn4ccnc4c(Cc4cc(F)cc(F)c4)n3)nc(N)c21 (stereo not drawn) [Example 48-B, 4-Amino-2-{8-[(3,5-difluorophenyl)methyl]imidazo[1,2-a]pyrazin-6-yl}-5-(3-hydroxyphenyl)-5-methyl-5,7-dihydro-6H-pyrrolo[2,3-d]pyrimidin-6-one] | 0.723 nM | 114% | 198 nM | 
9 | CCCCc1nc(-c2nc(N)c3c(n2)NC(=O)C3(C)c2ccc(O)c(Cl)c2)cn2ccnc12 (stereo not drawn) [Example 75-B, 4-Amino-2-(8-butylimidazo[1,2-a]pyrazin-6-yl)-5-(3-chloro-4-hydroxyphenyl)-5-methyl-5,7-dihydro-6H-pyrrolo[2,3-d]pyrimidin-6-one] | 6.55 nM | 153% | 770 nM | 
10 | CC1(c2ccc(O)c(Cl)c2)C(=O)Nc2nc(-c3cn4ccnc4c(CC4CCCCC4)n3)nc(N)c21 (stereo not drawn) [Example 89-B, 4-Amino-5-(3-chloro-4-hydroxyphenyl)-2-(8-(cyclohexylmethyl)imidazo[1,2-a]pyrazin-6-yl)-5-methyl-5,7-dihydro-6H-pyrrolo[2,3-d]pyrimidin-6-one] | 0.823 nM | 127% | 809 nM | 
11 | CC1(c2ccc(Cl)c(O)c2)C(=O)Nc2nc(-c3cn4ncnc4c(CCC(F)(F)C(F)(F)F)n3)nc(NCCC(F)(F)F)c21 (stereo not drawn) [Example 138-A, 5-(4-Chloro-3-hydroxy-phenyl)-5-methyl-2-(8-(3,3,4,4,4-pentafluoro-butyl)-[1,2,4]triazolo-[1,5-a]pyrazin-6-yl)-4-((3,3,3-trifluoropropyl)-amino)-5,7-dihydro-6H-pyrrolo[2,3-d]pyrimidin-6-one] | 4.62 nM | 65% | 169 nM | 
12 | CC1(c2cccc(O)c2)C(=O)Nc2nc(-c3cn4ccnc4c(Cc4ccc(Cl)cc4)n3)nc(N)c21 (stereo not drawn) [Example 56-B, 4-Amino-2-{8-[(4-chlorophenyl)methyl]imidazo[1,2-a]pyrazin-6-yl}-5-(3-hydroxyphenyl)-5-methyl-5,7-dihydro-6H-pyrrolo[2,3-d]pyrimidin-6-one] | 1.24 nM | 101% | 627 nM | 
13 | CN1CCN(c2nc(-c3cn4ccnc4c(Cc4ccc(F)cc4)n3)nc3c2C(C)(c2ccc(Cl)c(O)c2)C(=O)N3)CC1 (stereo not drawn) [Example 134-A, 5-(4-Chloro-3-hydroxy-phenyl)-2-{8-[(4-fluoro-phenyl)methyl]imidazo-[1,2-a]pyrazin-6-yl}-5-methyl-4-(4-methyl-piperazin-1-yl)-5,7-dihydro-6H-pyrrolo-[2,3-d]pyrimidin-6-one] | 0.592 nM | 102% | 333 nM | 
14 | CC1(c2ccc(Cl)c(O)c2)C(=O)Nc2nc(-c3cn4ccnc4c(Cc4cccc(F)c4)n3)nc(NCC(O)C(F)(F)F)c21 (stereo not drawn) [Example 131-AA, 5-(4-Chloro-3-hydroxy-phenyl)-2-{8-[(3-fluoro-phenyl)methyl]imidazo-[1,2-a]pyrazin-6-yl}-5-methyl-4-[(3,3,3-trifluoro-2-hydroxypropyl)amino]-5,7-dihydro-6H-pyrrolo-[2,3-d]pyrimidin-6-one] | 0.884 nM | 89% | 427 nM | 

The next molecules have a lower Ki [1] than those just listed; values first:

Row | Ki [1] | Emax (sGC α1/β1 heterodimer) | EC50 (sGC α1/β1 heterodimer) | % Activation (sGC α1/β1 heterodimer; cGMP production as percentage of maximum of compound A (set to 100%)) | Compound
15 | 0.091 nM | 113% | 188 nM |  | CC1(c2cc(O)c(Cl)c(F)c2)C(=O)Nc2nc(-c3cn4ccnc4c(Cc4cccc(F)c4)n3)nc(N)c21 (stereo not drawn) [Example 5-B, 4-Amino-5-(4-chloro-3-fluoro-5-hydroxyphenyl)-2-{8-[(3-fluorophenyl)methyl]imidazo[1,2-a]pyrazin-6-yl}-5-methyl-5,7-dihydro-6H-pyrrolo[2,3-d]pyrimidin-6-one]
16 | 0.274 nM | 93% | 82 nM |  | CC1(c2cccc(O)c2)C(=O)Nc2nc(-c3cn4ccnc4c(Cc4ccc(F)cc4)n3)nc(N)c21 (stereo not drawn) [Example 31-B, 4-Amino-2-{8-[(4-fluorophenyl)methyl]imidazo[1,2-a]pyrazin-6-yl}-5-(3-hydroxyphenyl)-5-methyl-5,7-dihydro-6H-pyrrolo[2,3-d]pyrimidin-6-one]
17 | 0.306 nM | 107% | 648 nM |  | CC(C)CCc1nc(-c2nc(N)c3c(n2)NC(=O)C3(C)c2cc(O)c(Cl)c(F)c2)cn2ccnc12 (stereo not drawn) [Example 32-B, 4-Amino-5-(4-chloro-3-fluoro-5-hydroxyphenyl)-2-(8-isopentylimidazo[1,2-a]pyrazin-6-yl)-5-methyl-5,7-dihydro-6H-pyrrolo[2,3-d]pyrimidin-6-one]
18 | 0.372 nM | 107% | 768 nM |  | CC1(c2cccc(O)c2)C(=O)Nc2nc(-c3cn4ccnc4c(Cc4ccccc4)n3)nc(N)c21 (stereo not drawn) [Example 123-B, 4-Amino-2-(8-benzyl-imidaxol[1,2-a]pyrazin-6-yl)-5-(3-hydroxyphenyl)-5-methyl-5,7-dihydro-6H-pyrrolo[2,3-d]pyrimidin-6-one]
19 | 0.49 nM | 136% | 588 nM |  | CC1(c2ccc(O)c(F)c2)C(=O)Nc2nc(-c3cn4ncnc4c(Cc4ccc(F)cc4)n3)nc(N)c21 (stereo not drawn) [Example 41-B, 4-Amino-5-(3-fluoro-4-hydroxyphenyl)-2-{8-[(4-fluorophenyl)methyl]-[1,2,4]triazolo[1,5-a]pyrazin-6-yl}-5-methyl-5,7-dihydro-6H-pyrrolo[2,3-d]pyrimidin-6-one]
20 | 0.163 nM | 117% | 482 nM |  | CC1(c2ccc(C(F)(F)F)c(O)c2)C(=O)Nc2nc(-c3cn4ccnc4c(Cc4cccc(F)c4)n3)nc(N)c21 (stereo not drawn) [Example 17-B, 4-Amino-2-{8-[(3-fluorophenyl)methyl]imidazo[1,2-a]pyrazin-6-yl}-5-(3-hydroxy-4-(trifluoromethyl)phenyl)-5-methyl-5,7-dihydro-6H-pyrrolo[2,3-d]pyrimidin-6-one]
21 | 0.479 nM | 88% | 368 nM |  | CC1(c2cc(O)c(Cl)cn2)C(=O)Nc2nc(-c3cn4ccnc4c(Cc4cc(F)cc(F)c4)n3)nc(N)c21 (stereo not drawn) [Example 40-B, 4-Amino-5-(5-chloro-4-hydroxypyridin-2-yl)-2-{8-[(3,5-difluorophenyl)methyl]imidazo[1,2-a]pyrazin-6-yl}-5-methyl-5,7-dihydro-6H-pyrrolo[2,3-d]pyrimidin-6-one]
